43 compounds from patent US20260001849A1, “NOVEL B0AT1 INHIBITOR” (MITSUBISHI TANABE PHARMA CORPORATION, priority 2023, published 2026) can be followed below.

Where two headings read alike, the source gives them in different places.

In this experiment the target is T1, Human BOAT1 (Homo sapiens, UniProt Q695T7).
T1 construct: expressed in transfected cells
T1 sequence (Q695T7 1-634): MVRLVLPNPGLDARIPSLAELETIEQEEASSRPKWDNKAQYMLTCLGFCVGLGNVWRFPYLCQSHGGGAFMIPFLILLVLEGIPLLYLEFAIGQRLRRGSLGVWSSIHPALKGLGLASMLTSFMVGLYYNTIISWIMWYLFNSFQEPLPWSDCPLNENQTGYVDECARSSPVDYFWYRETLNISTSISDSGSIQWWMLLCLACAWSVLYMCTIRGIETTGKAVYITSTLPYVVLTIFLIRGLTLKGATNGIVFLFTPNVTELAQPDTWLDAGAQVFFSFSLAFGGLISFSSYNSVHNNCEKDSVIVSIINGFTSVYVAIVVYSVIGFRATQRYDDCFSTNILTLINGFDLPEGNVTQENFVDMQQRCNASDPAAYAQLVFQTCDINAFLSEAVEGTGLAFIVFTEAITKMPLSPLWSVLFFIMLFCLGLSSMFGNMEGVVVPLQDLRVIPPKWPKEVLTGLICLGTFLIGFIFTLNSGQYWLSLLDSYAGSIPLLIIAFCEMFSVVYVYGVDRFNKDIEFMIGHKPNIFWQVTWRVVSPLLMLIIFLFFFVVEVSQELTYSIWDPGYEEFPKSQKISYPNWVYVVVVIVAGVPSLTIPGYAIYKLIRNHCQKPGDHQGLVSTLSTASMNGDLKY
The experiment can be described thus: hBOAT1 inhibitory test (phenylalanine uptake). In kind it is cell-based. The settings on record: Human BOAT1 stable expression CHO cells, phenylalanine 0.25 mM, read-out: hB0AT1 IC50. Here is the method: A test compound dissolved in dimethyl sulfoxide (DMSO) was added to a 96 well plate for solid phase radioactivity measurement containing a scintillator at the bottom of the well (final concentration of DMSO 0.5%). DMSO alone as a control and DMSO containing N-(4-bromophenyl)-3,5-dichloro-2-hydroxybenzamide (final concentration […]) for the measurement of BOAT1 non-specific uptake were similarly added at 0.5 μL per well. Human BOAT1 stable expression CHO cells suspended in a buffer (buffer containing 96 mM sodium chloride, 2 mM potassium chloride, 1.8 mM calcium chloride, 1 mM magnesium chloride, 0.01% bovine serum albumin, and 10 mM 2-[4-(2-hydroxyethyl)-1-piperazinyl]ethanesulfonic acid) were added by 90 μL to 75000 cells/well. After standing at ordinary temperature for 30 min or longer, the cells were subjected to a phenylalanine uptake experiment. A buffer containing L-phenylalanine and [3,4,5-3H]-L-phenylalanine was added by 10 μL per well (final concentration of phenylalanine 0.25 mM), and the radioactivity of the plate bottom surface at ordinary temperature was measured with a scintillation counter over time, and the radioactivity value after 100 to 200 min was analyzed.

The mark [1] stands for this setting: [3H]-L-phenylalanine uptake, radioactivity after 100 to 200 min.

For the compound `O=C(/C=C/c1ccc(C(F)(F)F)cc1F)NCC(=O)N1CCN(C[C@H]2C[C@@H](C(=O)O)C2)CC1c1ccc(Cl)cc1` (mixture of isomers) [I-249, 3-[[3-(4-chlorophenyl)-4-[2-[[(E)-3-[2-fluoro-4-(trifluoromethyl)phenyl]prop-2-enoyl]amino]acetyl]piperazin-1-yl]methyl]cyclobutane-1-carboxylic acid], the concentration for half-maximal inhibition (IC50) (commonly the concentration that inhibits the measured activity by half) under setting [1] turned out to be 96 nM.
Turning to `O=C(O)CCCN1CCN(C(=O)CNC(=O)/C=C/c2ccc(C(F)(F)F)cc2F)C(c2cccc(Br)c2)C1` (single isomer, unassigned) [I-292, 4-[3-(3-bromophenyl)-4-[2-[[(E)-3-[2-fluoro-4-(trifluoromethyl)phenyl]prop-2-enoyl]amino]acetyl]piperazin-1-yl]butanoic acid], the IC50 (phenylalanine uptake) is 1200 nM.
Turning to `O=C(O)CCCN1CCN(C(=O)CNC(=O)/C=C/c2ccc(C(F)(F)F)cc2F)C(c2cccc(Br)c2)C1` (single isomer, unassigned) [I-293, 4-[3-(3-bromophenyl)-4-[2-[[(E)-3-[2-fluoro-4-(trifluoromethyl)phenyl]prop-2-enoyl]amino]acetyl]piperazin-1-yl]butanoic acid], the IC50 (phenylalanine uptake) is 39 nM.
As to `O=C(O)CCCN1CCN(C(=O)CNC(=O)/C=C/c2ccc(C(F)(F)F)cc2F)C(c2ccc(Cl)cc2)C1` (single isomer, unassigned) [I-294, 4-[3-(4-chlorophenyl)-4-[2-[[(E)-3-[2-fluoro-4-(trifluoromethyl)phenyl]prop-2-enoyl]amino]acetyl]piperazin-1-yl]butanoic acid], the IC50 (phenylalanine uptake) worked out at 266 nM.
As for `O=C(O)CCCN1CCN(C(=O)CNC(=O)/C=C/c2ccc(C(F)(F)F)cc2F)C(c2ccc(Cl)cc2)C1` (single isomer, unassigned) [I-295, 4-[3-(4-chlorophenyl)-4-[2-[[(E)-3-[2-fluoro-4-(trifluoromethyl)phenyl]prop-2-enoyl]amino]acetyl]piperazin-1-yl]butanoic acid], the half-maximal inhibitory concentration (IC50) (phenylalanine uptake) came out at 51 nM.
Regarding `O=C(/C=C/c1ccc(C(F)(F)F)cc1F)NCC(=O)N1CCN(CC2CC(C(=O)O)C2)CC1c1ccc(Cl)cc1` (single isomer, unassigned) [I-296, 3-[[3-(4-chlorophenyl)-4-[2-[[(E)-3-[2-fluoro-4-(trifluoromethyl)phenyl]prop-2-enoyl]amino]acetyl]piperazin-1-yl]methyl]cyclobutane-1-carboxylic acid], where the note is “phenylalanine uptake”, the half-inhibitory concentration (IC50) stood at 747 nM.
The same measure, in the same setting: the result for `O=C(/C=C/c1ccc(C(F)(F)F)cc1F)NCC(=O)N1CCN(CC2CC(C(=O)O)C2)CC1c1ccc(Cl)cc1` (single isomer, unassigned) [I-297, 3-[[3-(4-chlorophenyl)-4-[2-[[(E)-3-[2-fluoro-4-(trifluoromethyl)phenyl]prop-2-enoyl]amino]acetyl]piperazin-1-yl]methyl]cyclobutane-1-carboxylic acid] reads 37 nM.
Turning to `COC(=O)CCCN1CCN(C(=O)CNC(=O)/C=C/c2ccc(C(F)(F)F)cc2)C(c2ccccc2)C1` (stereo not shown) [I-4], under setting [1], the half-inhibitory concentration (IC50) is 50 nM.
Still for that read-out and setting: the same measure for `COC(=O)CNc1ccc2c(c1)CCN(C(=O)CNC(=O)/C=C/c1ccc(C(F)(F)F)cc1)C2` [I-11]: 81 nM.
As for `COC(=O)Cn1nc(C)c2c1CCN(C(=O)CNC(=O)/C=C/c1ccc(C(F)(F)F)cc1)C2` [I-12], the IC50 under setting [1] stood at 89 nM.
On the same count and under the same terms, the same measure for `COC(=O)CCc1cc2c(s1)CN(C(=O)CNC(=O)/C=C/c1ccc(C(F)(F)F)cc1)CC2` [I-13]: 123 nM; for `CC(C)(C)OC(=O)C1CCN(c2ccc3c(c2)CCN(C(=O)CNC(=O)/C=C/c2ccc(C(F)(F)F)cc2)C3)C1` (stereo not shown) [I-26]: 332 nM.
Turning to `CC(C)(C)OC(=O)CCc1ccc2c(c1)CCN(C(=O)CNC(=O)/C=C/c1ccc(C(F)(F)F)cc1)C2` [I-40], the IC50 under setting [1] was determined as 996 nM.
On the same count and under the same terms, the same measure for `COc1cc(CC(=O)OC(C)(C)C)cc2c1CN(C(=O)CNC(=O)/C=C/c1ccc(C(F)(F)F)cc1)CC2` [I-43]: 709 nM; for `COC(=O)c1cccc(C2CCCN(C(=O)CNC(=O)/C=C/c3ccc(C(F)(F)F)cc3F)C2)c1` (stereo not shown) [I-61]: 1670 nM.
On the same count and under the same terms, the result for `COC(=O)c1cccc(C2CN(C(=O)CNC(=O)/C=C/c3ccc(C(F)(F)F)cc3F)CCN2C)c1` (stereo not shown) [I-62] reads 463 nM.
Still for that read-out and setting: the result for `COC(=O)Cc1cc(F)c2c(c1)CCN(C(=O)CNC(=O)/C=C/c1ccc(C(F)(F)F)cc1F)C2` [I-118] reads 42 nM; that for `O=C(O)Cc1ccc2c(c1)CCN(C(=O)CNC(=O)/C=C/c1ccc(C(F)(F)F)cc1)CC2` [I-140, 2-[3-[2-[[(E)-3-[4-(trifluoromethyl)phenyl]prop-2-enoyl]amino]acetyl]-1,2,4,5-tetrahydro-3-benzazepin-7-yl]acetic acid], 436 nM; that for `O=C(O)Cc1ccc2c(c1)CN(C(=O)CNC(=O)/C=C/c1ccc(C(F)(F)F)cc1)C2` [I-142], 241 nM.
Turning to `N#Cc1c(CC(=O)O)ccc2c1CCN(C(=O)CNC(=O)/C=C/c1ccc(S(F)(F)(F)(F)F)cc1)C2` [I-152], under setting [1], the 50% inhibitory concentration (IC50) was 96 nM.
As to `O=C(O)Cc1cc(Cl)c2c(c1)CCN(C(=O)CNC(=O)/C=C/c1ccc(I)cc1)C2` [I-155], the concentration for half-maximal inhibition (IC50) under setting [1] is 84 nM.
Consider `O=C(O)CCc1ncc2c(n1)CCN(C(=O)CNC(=O)/C=C/c1ccc(C(F)(F)F)cc1)C2` [I-156], for which, under setting [1], the IC50 came out at 251 nM.
In the case of `O=C(/C=C/c1ccc(C(F)(F)F)cc1)NCC(=O)N1CCc2cc(N3CCC(C(=O)O)C3)ccc2C1` (stereo not shown) [I-160], the IC50 under setting [1] came to 156 nM.
As for `O=C(/C=C/c1ccc(C(F)(F)F)cc1)NCC(=O)N1CCc2cc(N3CCC(C(=O)O)CC3)ccc2C1` [I-161], under setting [1], the half-maximal inhibitory concentration (IC50) was 259 nM.
The same measure, in the same setting: the same measure for `CC(Cc1ccc2c(c1)CCN(C(=O)CNC(=O)/C=C/c1ccc(C(F)(F)F)cc1)C2)C(=O)O` (stereo not shown) [I-163]: 223 nM; for `CC(CC(=O)O)c1ccc2c(c1)CCN(C(=O)CNC(=O)/C=C/c1ccc(C(F)(F)F)cc1)C2` (stereo not shown) [I-164]: 386 nM; for `O=C(O)Cc1cc2c(cn1)CN(C(=O)CNC(=O)/C=C/c1ccc(C(F)(F)F)cc1)CC2` [I-167]: 106 nM.
Still for that read-out and setting: the result for `O=C(O)Cc1ccc2c(c1)CN(C(=O)CNC(=O)/C=C/c1ccc(C(F)(F)F)cc1)CC2` [I-168] reads 447 nM; that for `O=C(O)CCCc1ccc2c(c1)CCN(C(=O)CNC(=O)/C=C/c1ccc(C(F)(F)F)cc1)C2` [I-170], 240 nM.
Still for that read-out and setting: the same measure for `COc1cc(CC(=O)O)cc2c1CN(C(=O)CNC(=O)/C=C/c1ccc(C(F)(F)F)cc1)CC2` [I-177]: 171 nM; for `O=C(O)Cc1cnn2c1CN(C(=O)CNC(=O)/C=C/c1ccc(C(F)(F)F)cc1)CC2` [I-179]: 872 nM; for `O=C(O)COc1cc(Br)c2c(c1)CCN(C(=O)CNC(=O)/C=C/c1ccc(C(F)(F)F)cc1)C2` [I-181]: 138 nM.
Regarding `O=C(O)Cc1ccc2c(c1)CCN(C(=O)CNC(=O)/C=C/c1ccc(C(F)(F)F)cc1Cl)C2` [I-188], the half-inhibitory concentration (IC50) under setting [1] turned out to be 115 nM.
With `O=C(O)Cc1ccc2c(c1)CCN(C(=O)CNC(=O)/C=C/c1ccc(C(F)(F)F)c(F)c1)C2` [I-189], under setting [1], the IC50 is 424 nM.
Take `O=C(O)Cc1cccc2c1CCN(C(=O)CNC(=O)/C=C/c1ccc(C(F)(F)F)cc1)C2` [I-192]: the IC50 under setting [1] was 397 nM.
Regarding `O=C(O)CCc1cnn2c1CN(C(=O)CNC(=O)/C=C/c1ccc(C(F)(F)F)cc1)CC2` [I-193], the concentration for half-maximal inhibition (IC50) under setting [1] turned out to be 459 nM.
As for `O=C(O)CCc1nc2c(s1)CN(C(=O)CNC(=O)/C=C/c1ccc(C(F)(F)F)cc1)CC2` [I-200, 3-[5-[2-[[(E)-3-[4-(trifluoromethyl)phenyl]prop-2-enoyl]amino]acetyl]-6,7-dihydro-4H-[1,3]thiazolo[5,4-c]pyridin-2-yl]propanoic acid], the 50% inhibitory concentration (IC50) under setting [1] amounted to 192 nM.
Take `N#Cc1c(CC(=O)O)ccc2c1CCN(C(=O)CNC(=O)/C=C/c1ccc(I)cc1F)C2` [I-203]: the IC50 under setting [1] stood at 56 nM.
As for `O=C(O)Cc1ccc2n(c1=O)CCN(C(=O)CNC(=O)/C=C/c1ccc(C(F)(F)F)cc1F)C2` [I-207], the IC50 under setting [1] came to 579 nM.
Still for that read-out and setting: the result for `O=C(O)Cc1ncc2c(n1)CCN(C(=O)CNC(=O)/C=C/c1ccc(C(F)(F)F)cc1)C2` [I-208] reads 224 nM.
For the compound `CC(F)(F)c1ccc(/C=C/C(=O)NCC(=O)N2CCc3cc(CC(=O)O)ccc3C2)cc1` [I-211], the IC50 under setting [1] was determined as 263 nM.
Regarding `COCC1c2ccc(CC(=O)O)cc2CCN1C(=O)CNC(=O)/C=C/c1ccc(C(F)(F)F)cc1` (stereo not shown) [I-212], under setting [1], the concentration for half-maximal inhibition (IC50) was 496 nM.
On to `O=C(O)Cc1ccc2c(c1)C(O)CN(C(=O)CNC(=O)/C=C/c1ccc(C(F)(F)F)cc1)C2` (stereo not shown) [I-213], for which the IC50 under setting [1] came to 156 nM.
